Assay results as given in patent publication US12365696B2, “Small-molecule focal adhesion kinase (FAK) inhibitors” (DANA-FARBER CANCER INSTITUTE, INC., priority 2019, dated 2025).

How the values were obtained:
Assay in all cases: KINOMEscan
Type in all cases: binding
[1] = biological target: HIPK3 (Homo sapiens (Human), UniProt Q9H422); details: HIPK3, 10000 nM; read-out: Percent Control
[2] = biological target: ALK(L1196M) (Homo sapiens (Human), UniProt Q9UM73, L1196M); details: 10000 nM, read-out: Percent Control
[3] = biological target: FGFR3 (Homo sapiens (Human), UniProt P22607); details: FGFR3, 10000 nM; read-out: Percent Control
[4] = biological target: PHKG2 (Homo sapiens (Human), UniProt P15735); details: PHKG2, 10000 nM; read-out: Percent Control
[5] = biological target: BMPR1B (Homo sapiens (Human), UniProt O00238); details: 10000 nM, read-out: Percent Control
[6] = biological target: TLK1 (Homo sapiens (Human), UniProt Q9UKI8); details: TLK1, 10000 nM; read-out: Percent Control
[7] = biological target: WEE1 (Homo sapiens (Human), UniProt P30291); details: WEE1, 10000 nM; read-out: Percent Control
Chain of WEE1 (P30291 whole entry): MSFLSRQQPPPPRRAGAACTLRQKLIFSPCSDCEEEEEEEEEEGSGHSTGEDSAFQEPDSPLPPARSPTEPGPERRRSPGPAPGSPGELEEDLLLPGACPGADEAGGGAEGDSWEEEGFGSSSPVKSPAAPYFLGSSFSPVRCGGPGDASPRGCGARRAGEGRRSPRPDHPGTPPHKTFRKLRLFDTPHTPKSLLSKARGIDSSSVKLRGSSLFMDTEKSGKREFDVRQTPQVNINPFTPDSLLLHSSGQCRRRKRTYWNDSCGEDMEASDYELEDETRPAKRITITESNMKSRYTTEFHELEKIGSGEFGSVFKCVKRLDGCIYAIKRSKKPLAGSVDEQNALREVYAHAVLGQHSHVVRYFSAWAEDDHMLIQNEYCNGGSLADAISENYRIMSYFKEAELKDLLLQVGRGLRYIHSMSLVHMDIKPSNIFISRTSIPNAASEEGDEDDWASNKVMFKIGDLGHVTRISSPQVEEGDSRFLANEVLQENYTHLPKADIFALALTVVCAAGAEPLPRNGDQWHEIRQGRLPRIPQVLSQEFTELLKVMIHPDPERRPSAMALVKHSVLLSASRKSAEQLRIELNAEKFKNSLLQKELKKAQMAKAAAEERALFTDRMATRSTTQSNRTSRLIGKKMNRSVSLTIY

[8] = biological target: ULK3 (Homo sapiens (Human), UniProt Q6PHR2); details: ULK3, 10000 nM; read-out: Percent Control
[9] = biological target: PRKR (Homo sapiens (Human), UniProt P19525); details: 10000 nM, read-out: Percent Control
[10] = biological target: PRKD3 (Homo sapiens (Human), UniProt O94806); details: PRKD3, 10000 nM; read-out: Percent Control
Chain of PRKD3 (O94806 whole entry): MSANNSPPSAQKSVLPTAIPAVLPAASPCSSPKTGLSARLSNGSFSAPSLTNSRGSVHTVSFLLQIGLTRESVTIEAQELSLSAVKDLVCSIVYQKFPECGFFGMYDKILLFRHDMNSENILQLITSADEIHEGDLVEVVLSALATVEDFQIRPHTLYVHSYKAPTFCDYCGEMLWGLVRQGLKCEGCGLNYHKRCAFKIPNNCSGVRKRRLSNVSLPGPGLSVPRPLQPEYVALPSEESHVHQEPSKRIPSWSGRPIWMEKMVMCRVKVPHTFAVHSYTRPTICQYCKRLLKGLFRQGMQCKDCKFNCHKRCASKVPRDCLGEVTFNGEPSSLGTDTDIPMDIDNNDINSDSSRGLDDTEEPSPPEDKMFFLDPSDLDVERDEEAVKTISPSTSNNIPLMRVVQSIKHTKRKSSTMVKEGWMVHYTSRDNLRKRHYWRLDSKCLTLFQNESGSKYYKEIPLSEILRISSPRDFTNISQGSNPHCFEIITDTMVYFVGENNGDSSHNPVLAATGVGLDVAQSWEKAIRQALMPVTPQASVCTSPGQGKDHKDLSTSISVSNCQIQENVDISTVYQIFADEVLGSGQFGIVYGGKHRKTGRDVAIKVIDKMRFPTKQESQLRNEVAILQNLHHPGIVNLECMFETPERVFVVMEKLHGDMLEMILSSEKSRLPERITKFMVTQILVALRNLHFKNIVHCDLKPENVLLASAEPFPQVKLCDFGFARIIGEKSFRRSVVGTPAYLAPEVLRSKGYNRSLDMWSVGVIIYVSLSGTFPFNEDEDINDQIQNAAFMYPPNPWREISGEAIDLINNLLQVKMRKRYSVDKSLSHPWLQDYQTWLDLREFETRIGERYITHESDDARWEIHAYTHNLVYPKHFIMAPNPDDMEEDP

[11] = biological target: NEK6 (Homo sapiens (Human), UniProt Q9HC98); details: NEK6, 10000 nM; read-out: Percent Control
[12] = biological target: PRKCD (Homo sapiens (Human), UniProt Q05655); details: 10000 nM, read-out: Percent Control
Chain of PRKCD (Q05655 whole entry): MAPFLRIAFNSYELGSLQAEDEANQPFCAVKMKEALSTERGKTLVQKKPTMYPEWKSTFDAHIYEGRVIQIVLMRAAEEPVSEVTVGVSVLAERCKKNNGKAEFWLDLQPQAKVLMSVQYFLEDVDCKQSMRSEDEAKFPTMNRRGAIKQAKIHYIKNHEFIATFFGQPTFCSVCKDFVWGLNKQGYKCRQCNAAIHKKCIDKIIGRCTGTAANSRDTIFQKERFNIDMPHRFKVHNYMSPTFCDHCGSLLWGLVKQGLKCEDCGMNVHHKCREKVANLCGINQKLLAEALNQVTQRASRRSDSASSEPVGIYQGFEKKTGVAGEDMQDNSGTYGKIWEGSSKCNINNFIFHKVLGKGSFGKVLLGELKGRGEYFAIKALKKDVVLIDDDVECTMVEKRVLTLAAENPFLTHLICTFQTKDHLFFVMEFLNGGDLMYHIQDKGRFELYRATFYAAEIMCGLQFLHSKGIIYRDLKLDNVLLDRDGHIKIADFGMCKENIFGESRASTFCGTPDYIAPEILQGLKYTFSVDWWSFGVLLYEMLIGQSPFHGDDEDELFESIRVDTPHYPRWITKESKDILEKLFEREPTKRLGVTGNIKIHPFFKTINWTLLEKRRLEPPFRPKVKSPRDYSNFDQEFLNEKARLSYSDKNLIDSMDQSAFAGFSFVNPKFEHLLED

[13] = biological target: LZK (Homo sapiens (Human), UniProt O43283); details: 10000 nM, read-out: Percent Control
[14] = biological target: PRKCQ (Homo sapiens (Human), UniProt Q04759); details: 10000 nM, read-out: Percent Control
[15] = biological target: MYO3B (Homo sapiens (Human), UniProt Q8WXR4); details: 10000 nM, read-out: Percent Control
[16] = biological target: DMPK (Homo sapiens (Human), UniProt Q09013); details: 10000 nM, read-out: Percent Control
[17] = biological target: CLK1 (Homo sapiens (Human), UniProt P49759); details: CLK1, 10000 nM; read-out: Percent Control
[18] = biological target: p38-gamma (Homo sapiens (Human), UniProt P53778); details: 10000 nM, read-out: Percent Control
Chain of p38-gamma (P53778 whole entry): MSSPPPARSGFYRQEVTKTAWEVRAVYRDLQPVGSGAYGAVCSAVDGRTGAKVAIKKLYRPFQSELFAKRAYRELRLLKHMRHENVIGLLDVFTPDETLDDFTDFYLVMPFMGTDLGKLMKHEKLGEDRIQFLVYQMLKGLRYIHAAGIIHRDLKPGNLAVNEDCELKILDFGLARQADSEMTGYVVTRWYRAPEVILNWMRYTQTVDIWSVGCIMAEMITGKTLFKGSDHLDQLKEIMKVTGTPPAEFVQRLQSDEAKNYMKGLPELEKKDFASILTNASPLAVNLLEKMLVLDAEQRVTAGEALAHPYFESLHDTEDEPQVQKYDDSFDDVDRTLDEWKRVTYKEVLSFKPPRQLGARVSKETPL

[19] = biological target: RET (Homo sapiens (Human), UniProt P07949); details: 10000 nM, read-out: Percent Control
Chain of RET (P07949 29-1114): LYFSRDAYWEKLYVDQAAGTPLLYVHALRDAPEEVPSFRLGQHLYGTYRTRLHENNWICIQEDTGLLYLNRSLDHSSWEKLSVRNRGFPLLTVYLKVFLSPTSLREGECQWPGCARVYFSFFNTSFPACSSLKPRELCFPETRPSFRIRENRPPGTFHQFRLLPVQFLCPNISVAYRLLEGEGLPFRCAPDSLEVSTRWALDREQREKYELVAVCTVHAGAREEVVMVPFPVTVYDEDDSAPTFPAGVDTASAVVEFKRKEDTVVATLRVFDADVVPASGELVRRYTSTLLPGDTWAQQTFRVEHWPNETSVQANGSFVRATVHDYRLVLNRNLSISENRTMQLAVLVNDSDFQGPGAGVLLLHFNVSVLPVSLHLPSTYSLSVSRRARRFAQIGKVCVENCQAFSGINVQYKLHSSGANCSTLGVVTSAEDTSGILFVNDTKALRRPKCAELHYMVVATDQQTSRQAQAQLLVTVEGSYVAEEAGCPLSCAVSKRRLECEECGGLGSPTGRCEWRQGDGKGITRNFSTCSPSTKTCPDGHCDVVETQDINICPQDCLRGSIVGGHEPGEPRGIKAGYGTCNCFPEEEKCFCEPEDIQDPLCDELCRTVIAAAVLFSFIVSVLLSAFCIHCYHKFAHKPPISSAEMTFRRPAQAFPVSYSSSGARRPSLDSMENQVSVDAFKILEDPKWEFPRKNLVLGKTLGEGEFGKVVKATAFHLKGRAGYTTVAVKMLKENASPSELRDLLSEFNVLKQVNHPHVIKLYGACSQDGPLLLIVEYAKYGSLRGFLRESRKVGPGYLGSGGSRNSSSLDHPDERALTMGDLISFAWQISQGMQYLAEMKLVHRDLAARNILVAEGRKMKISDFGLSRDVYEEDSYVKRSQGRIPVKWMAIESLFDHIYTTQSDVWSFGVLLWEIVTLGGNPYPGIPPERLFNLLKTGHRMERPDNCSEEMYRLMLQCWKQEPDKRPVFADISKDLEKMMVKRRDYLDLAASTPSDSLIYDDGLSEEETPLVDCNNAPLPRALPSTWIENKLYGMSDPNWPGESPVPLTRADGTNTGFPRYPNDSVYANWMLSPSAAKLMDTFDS

[20] = biological target: CDK11 (Homo sapiens (Human), UniProt Q9BWU1); details: CDK11, 10000 nM; read-out: Percent Control
Chain of CDK11 (Q9BWU1 whole entry): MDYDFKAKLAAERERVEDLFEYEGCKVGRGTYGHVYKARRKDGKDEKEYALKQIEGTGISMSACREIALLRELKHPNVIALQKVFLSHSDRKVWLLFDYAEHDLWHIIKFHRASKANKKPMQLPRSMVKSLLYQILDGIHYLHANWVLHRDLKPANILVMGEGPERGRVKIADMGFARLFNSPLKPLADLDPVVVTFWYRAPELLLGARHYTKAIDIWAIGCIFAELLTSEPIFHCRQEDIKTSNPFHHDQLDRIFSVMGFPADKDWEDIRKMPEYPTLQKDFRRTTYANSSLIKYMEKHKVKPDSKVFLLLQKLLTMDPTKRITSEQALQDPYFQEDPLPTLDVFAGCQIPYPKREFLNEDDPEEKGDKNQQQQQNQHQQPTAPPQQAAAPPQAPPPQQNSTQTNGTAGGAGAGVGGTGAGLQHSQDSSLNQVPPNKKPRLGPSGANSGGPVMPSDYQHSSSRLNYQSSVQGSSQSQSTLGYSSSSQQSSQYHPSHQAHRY

[21] = biological target: CASK (Homo sapiens (Human), UniProt O14936); details: 10000 nM, read-out: Percent Control
[22] = biological target: DDR1 (Homo sapiens (Human), UniProt Q08345); details: DDR1, 10000 nM; read-out: Percent Control
[23] = biological target: WNK3 (Homo sapiens (Human), UniProt Q9BYP7); details: WNK3, 10000 nM; read-out: Percent Control
[24] = biological target: IKK-beta (Homo sapiens (Human), UniProt O14920); details: 10000 nM, read-out: Percent Control
[25] = biological target: VPS34 (Homo sapiens (Human), UniProt Q8NEB9); details: VPS34, 10000 nM; read-out: Percent Control
[26] = biological target: AKT3 (Homo sapiens (Human), UniProt Q9Y243); details: AKT3, 10000 nM; read-out: Percent Control
[27] = biological target: ROS1 (Homo sapiens (Human), UniProt P08922); details: ROS1, 10000 nM; read-out: Percent Control
[28] = biological target: BMX (Homo sapiens (Human), UniProt P51813); details: 10000 nM, read-out: Percent Control
[29] = biological target: ROCK1 (Homo sapiens (Human), UniProt Q13464); details: ROCK1, 10000 nM; read-out: Percent Control
[30] = biological target: p38-alpha (Homo sapiens (Human), UniProt Q16539); details: 10000 nM, read-out: Percent Control
[31] = biological target: YES (Homo sapiens (Human), UniProt P07947); details: 10000 nM, read-out: Percent Control
[32] = biological target: RIPK1 (Homo sapiens (Human), UniProt Q13546); details: RIPK1, 10000 nM; read-out: Percent Control
[33] = biological target: CAMK1D (Homo sapiens (Human), UniProt Q8IU85); details: 10000 nM, read-out: Percent Control
[34] = biological target: CHEK2 (Homo sapiens (Human), UniProt O96017); details: CHEK2, 10000 nM; read-out: Percent Control
[35] = biological target: CDC2L2 (Homo sapiens (Human), UniProt Q9UQ88); details: CDC2L2, 10000 nM; read-out: Percent Control
Chain of CDC2L2 (Q9UQ88 whole entry): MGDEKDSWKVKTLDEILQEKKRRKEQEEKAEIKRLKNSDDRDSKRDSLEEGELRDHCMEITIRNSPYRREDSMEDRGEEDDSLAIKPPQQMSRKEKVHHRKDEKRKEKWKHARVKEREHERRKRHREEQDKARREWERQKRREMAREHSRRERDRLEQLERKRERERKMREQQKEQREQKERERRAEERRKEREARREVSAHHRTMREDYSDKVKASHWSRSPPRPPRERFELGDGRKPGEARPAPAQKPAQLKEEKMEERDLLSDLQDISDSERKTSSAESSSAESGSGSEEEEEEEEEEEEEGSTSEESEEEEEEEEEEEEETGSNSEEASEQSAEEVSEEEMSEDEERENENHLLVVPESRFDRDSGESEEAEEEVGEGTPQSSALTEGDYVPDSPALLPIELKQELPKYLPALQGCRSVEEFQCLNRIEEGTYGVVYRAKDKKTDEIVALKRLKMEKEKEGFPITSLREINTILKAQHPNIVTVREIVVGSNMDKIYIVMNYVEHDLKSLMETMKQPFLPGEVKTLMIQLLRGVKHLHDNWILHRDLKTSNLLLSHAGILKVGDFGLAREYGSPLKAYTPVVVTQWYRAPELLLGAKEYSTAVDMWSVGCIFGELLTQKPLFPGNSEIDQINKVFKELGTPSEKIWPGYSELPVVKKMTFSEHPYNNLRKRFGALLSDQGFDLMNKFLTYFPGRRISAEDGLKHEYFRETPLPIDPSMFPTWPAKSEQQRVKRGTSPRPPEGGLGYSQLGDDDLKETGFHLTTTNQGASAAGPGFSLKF

SMILES	remaining binding at 10 µM [1] [%]	remaining binding at 10 µM [2] [%]	remaining binding at 10 µM [3] [%]	remaining binding at 10 µM [4] [%]	remaining binding at 10 µM [5] [%]	remaining binding at 10 µM [6] [%]	remaining binding at 10 µM [7] [%]	remaining binding at 10 µM [8] [%]	remaining binding at 10 µM [9] [%]	remaining binding at 10 µM [10] [%]	remaining binding at 10 µM [11] [%]	remaining binding at 10 µM [12] [%]	remaining binding at 10 µM [13] [%]	remaining binding at 10 µM [14] [%]	remaining binding at 10 µM [15] [%]	remaining binding at 10 µM [16] [%]	remaining binding at 10 µM [17] [%]	remaining binding at 10 µM [18] [%]	remaining binding at 10 µM [19] [%]	remaining binding at 10 µM [20] [%]	also measured
COc1cc(N2CCC(N3CCN(C)CC3)CC2)ccc1Nc1ncc2c(n1)N(C)c1sc(C)nc1C(=O)N2 [Compound 3, 6-((2-methoxy-4-(4-(4-methylpiperazin-1-yl)piperidin-1-yl)phenyl)amino)-2,4-dimethyl-4,9-dihydro-10H-pyrimido[5,4-b]thiazolo[5,4-e][1,4]diazepin-10-one]	100	80	92	69	88	90	88	95	100	75	78	86	100	89	74	99	90	67	99	71	remaining binding at 10 µM [21]: 83%; remaining binding at 10 µM [22]: 89%; remaining binding at 10 µM [23]: 100%; remaining binding at 10 µM [24]: 100%; remaining binding at 10 µM [25]: 100%; remaining binding at 10 µM [26]: 100%; remaining binding at 10 µM [27]: 74%; remaining binding at 10 µM [28]: 76%; remaining binding at 10 µM [29]: 100%; remaining binding at 10 µM [30]: 75%; remaining binding at 10 µM [31]: 72%; remaining binding at 10 µM [32]: 100%; remaining binding at 10 µM [33]: 98%; remaining binding at 10 µM [34]: 72%; remaining binding at 10 µM [35]: 87%
COc1cc(N2CCC(N3CCN(C)CC3)CC2)ccc1Nc1ncc2c(n1)N(C)c1sc(C)nc1C(=O)N2C [Compound 5, 6-((2-methoxy-4-(4-(4-methylpiperazin-1-yl)piperidin-1-yl)phenyl)amino)-2,4,9-trimethyl-4,9-dihydro-10H-pyrimido[5,4-b]thiazolo[5,4-e][1,4]diazepin-10-one]	100	79	98	38	94	81	98	97	65	34	90	94	100	88	100	100	100	95	100	90	remaining binding at 10 µM [21]: 100%; remaining binding at 10 µM [22]: 100%; remaining binding at 10 µM [23]: 97%; remaining binding at 10 µM [24]: 96%; remaining binding at 10 µM [25]: 89%; remaining binding at 10 µM [26]: 100%; remaining binding at 10 µM [27]: 75%; remaining binding at 10 µM [28]: 90%; remaining binding at 10 µM [29]: 100%; remaining binding at 10 µM [30]: 93%; remaining binding at 10 µM [31]: 97%; remaining binding at 10 µM [32]: 96%; remaining binding at 10 µM [33]: 86%; remaining binding at 10 µM [34]: 100%; remaining binding at 10 µM [35]: 95%
